Measured values from patent publication US5171662A, “Method of detecting HIV protease activity” (priority 1991, dated 1992).
Non-standard residues stand in square brackets, D forms with d. Residues, ends and D or L forms follow the SMILES beside them. No end group written: not given here. *: point of attachment. Sta = CC(C)C[C@H](N)[C@@H](O)CC(=O)O; Isovaleryl = CC(C)CC(=O)*

What was measured:
HIV protease [1] = details: cited from earlier work
HIV protease [2] = details: cited from earlier work; remark: listed apart in the source
[3] = test system: synthetic protease (99-residue peptide with the sequence proposed for the HIV protease); details: cited from earlier work
HIV protease [4] = molecular target: HIV protease (HIV-1 M:B_HXB2R, UniProt P04585); assay: Cleavage of tetradecapeptide substrate by HIV protease, Ang I determined by RIA; type: biochemical
From the text: The tetradecapeptide (TDP) substrate, Asp-Arg-Val-Tyr-Ile-His-Pro-Phe-His-Leu-Leu-Val-Tyr-Ser, was obtained from Peninsula Laboratories, Inc., Belmont, Calif. The Ang I RIA kit was purchased from Baxter Health Care Corporation, Cambridge, Mass. Recombinant HIV-1 protease was purified and refolded from E. coli as published previously (Tomasselli, A. G. et. al. (1990) Biochemistry 29, 264-269). The TDP substrate has an HIV protease cleavage site which when cut at the Leu-Leu bond produces authentic Ang I. The Ang I RIA kit detected the Angiotesin I if produced.
The various steps of the in vitro assay to screen a compound were performed as follows. The series of assays are done for each compound, each assay using a different concentration of compound. The various reagents were added to the system in the order which they are listed.
1. 52 μl assay buffer (0.1M Sodium Acetate, 10% glycerol, 3 mM EDTA, 5% ethylene glycol, 1 mg/ml BSA, pH 5.5)
2. 15 μl HIV-1 protease (final Concentration in assay 0.75 μg/ml). For inhibition studies, 12 μl of inhibitor solution was added prior to adding the enzyme.
3. 135 μl of 2.8 uM substrate (final concentration about 1.9 μM)
4. […]
5. […] Following an overnight equilibration at room temperature, the tubes are drained and the amount of radioactivity (^125 I-labeled Ang I) remaining on the tube is determined in a gamma counter. […]

Compound | inhibition of cleavage of gag precursor polyproteins by HIV protease (HIV protease [1]) | inhibition of autoprocessing which liberates the protease from the precursor (HIV protease [2]) | inhibition of proteolytic action of the synthetic protease [3] | cleavage of substrate by HIV protease (HIV protease [4])
CC(C)CC(=O)N[C@H](C(=O)N[C@H](C(=O)N[C@@H](CC(C)C)[C@@H](O)CC(=O)N[C@@H](C)C(=O)N[C@@H](CC(C)C)[C@@H](O)CC(=O)O)C(C)C)C(C)C [pepstatin A] (Isovaleryl-VV[Sta]A[Sta]-OH) | can be inhibited by pepstatin A | can be inhibited | can be inhibited by pepstatin | –
DRVYIHPFHLLVYS [TDP] | – | – | – | HIV protease cleaves the Ang I substrate
